system: Human Jurkat T-cells (clone N); experiment: Jurkat T-cell activation (anti-TCR, CD69 upregulation); format: cell-based; conditions: not given
Summary of the method: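 Jurkat cells in RPMI + 5% FBS preincubated with compound 1 h at 37 °C, then stimulated with anti-TCR C305 at 500 ng/ml for 20 h. CD69 surface expression stained with anti-CD69-APC and read by flow cytometry; IC50 versus solvent-only control.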

Q: Which IC50 does the source give for O=C(COc1cccc(Nc2ncc(F)c(Nc3ccc4c(c3)OCCO4)n2)c1)N(CCO)CCO [Compound R926781] here?
A: 9.81 µM

Q: How did the IC50 turn out when O=C(COc1cccc(Nc2ncc(F)c(Nc3ccc4c(c3)OCCO4)n2)c1)NCC(O)CO (stereo not drawn) [Compound R926782] was run?
A: 1.22 µM

Q: With O=C(COc1cccc(Nc2ncc(F)c(Nc3ccc4c(c3)OCCO4)n2)c1)NC(CO)CO [Compound R926784] as the molecule, how does the IC50 read?
A: 2.38 µM

Q: How did the IC50 turn out when O=C(NC(CO)CO)c1cc2cc(Nc3ncc(F)c(Nc4ccc5c(c4)OCCO5)n3)ccc2o1 [Compound R926785] was run?
A: 2.58 µM

Q: O=C1OCc2ccc(Nc3ncc(F)c(Nc4ccc5c(c4)OCCO5)n3)cc21 [Compound R926786] was tested. Which IC50 did it give?
A: 7.36 µM

Q: With CCOC(=O)COc1cccc(Nc2ncc(F)c(Nc3cc(OC)cc(OC)c3)n2)c1 [Compound R926795] as the molecule, how does the IC50 read?
A: > 10 µM

Q: CNC(=O)COc1cccc(Nc2ncc(F)c(Nc3cc(OC)cc(OC)c3)n2)c1 [Compound R926796] was tested. Which IC50 did it give?
A: 4.21 µM

Q: With CCOC(=O)COc1cccc(Nc2ncc(C(=O)OCC)c(Nc3ccc4c(c3)OC(F)(F)C(F)(F)O4)n2)c1 [Compound R926799] as the molecule, how does the IC50 read?
A: > 10 µM

Q: CCOC(=O)c1cnc(Nc2cccc(OCC(=O)NC)c2)nc1Nc1ccc2c(c1)OCCO2 [Compound R926800] was tested. Which IC50 did it give?
A: > 10 µM

Q: With CCOC(=O)c1cnc(Nc2cccc(OCC(=O)NC)c2)nc1Nc1cc(OC)cc(OC)c1 [Compound R926801] as the molecule, how does the IC50 read?
A: > 10 µM

Q: How did the IC50 turn out when CCOC(=O)COc1cccc(Nc2nc(Nc3cc(OC)cc(OC)c3)ncc2F)c1 [Compound R926804] was run?
A: > 10 µM

Q: Fc1cnc(Nc2cccc(C(F)(F)F)c2)nc1Nc1ccc2c(c1)OCCO2 [Compound R926805] was tested. Which IC50 did it give?
A: > 10 µM

Q: Which IC50 does the source give for CCOC(=O)COc1cccc(Nc2ncc(F)c(Nc3ccc(-n4cnc(Cl)c4Cl)cc3)n2)c1 [Compound R926809] here?
A: > 10 µM

Q: CNC(=O)COc1cccc(Nc2nc(Nc3cc(OC)cc(OC)c3)ncc2F)c1 [Compound R926810] was tested. Which IC50 did it give?
A: 5.07 µM

Q: How did the IC50 turn out when O=C(COc1cccc(Nc2ncc(F)c(Nc3ccc4c(c3)OCCO4)n2)c1)NCCOC(=O)CCCCC1SCC2NC(=O)NC21 (stereo not drawn) [Compound R926811] was run?
A: 1.28 µM

Q: How did the IC50 turn out when CNC(=O)COc1cccc(Nc2ncc(F)c(Nc3ccc(-n4cnc(Cl)c4Cl)cc3)n2)c1 [Compound R926812] was run?
A: 6.76 µM

Q: For CNC(=O)c1cc2cccc(Nc3ncc(F)c(Nc4ccc5c(c4)OCCO5)n3)c2[nH]1 [Compound R926815], which IC50 is on record?
A: > 10 µM

Q: CNC(=O)COc1cccc(Nc2ncc(F)c(Nc3ccc4c(c3)OCCO4)n2)c1 [Compound R926816] was tested. Which IC50 did it give?
A: 0.739 µM

Q: Which IC50 does the source give for CNC(=O)COc1cccc(Nc2ncc(F)c(Nc3ccc4c(c3)OCCO4)n2)c1 [Compound R926826] here?
A: 3.73 µM

Q: With CCOc1ccc(Nc2nc(Nc3cccc(OCC(=O)NC)c3)ncc2F)cc1 [Compound R926827] as the molecule, how does the IC50 read?
A: 2.14 µM

Q: With CNC(=O)COc1cc(Nc2ncc(F)c(Nc3ccc4c(c3)OCCO4)n2)ccc1OC [Compound R926828] as the molecule, how does the IC50 read?
A: 1.01 µM

Q: CNC(=O)COc1cc(Nc2ncc(F)c(Nc3cccc(O)c3)n2)ccc1OC [Compound R926829] was tested. Which IC50 did it give?
A: 3.1 µM

Q: With CC(C)NC(=O)COc1cccc(Nc2ncc(F)c(Nc3ccc4c(c3)OCCO4)n2)c1 [Compound R926830] as the molecule, how does the IC50 read?
A: 4.16 µM

Q: For CNC(=O)COc1cccc(Nc2ncc(F)c(Nc3cccc(Cl)c3)n2)c1 [Compound R926832], which IC50 is on record?
A: 2.99 µM

Q: Which IC50 does the source give for CNC(=O)COc1cccc(Nc2ncc(F)c(Nc3cc(OC)cc(C(F)(F)F)c3)n2)c1 [Compound R926833] here?
A: 11.8 µM

Q: How did the IC50 turn out when CNC(=O)COc1cccc(Nc2ncc(F)c(Nc3ccc(OC)c(O)c3)n2)c1 [Compound R926834] was run?
A: 2.57 µM

Q: For CNC(=O)COc1cccc(Nc2ncc(F)c(Nc3ccc(OC)c(C(F)(F)F)c3)n2)c1 [Compound R926835], which IC50 is on record?
A: 3.58 µM

Q: With OB(O)c1cccc(Nc2ncc(F)c(Nc3cccc(B(O)O)c3)n2)c1 [Compound R926836] as the molecule, how does the IC50 read?
A: 14.5 µM

Q: Which IC50 does the source give for OB(O)c1cccc(Nc2ncc(F)c(Nc3ccc4c(c3)OCCO4)n2)c1 [Compound R926837] here?
A: > 10 µM

Q: For CNC(=O)COc1cccc(Nc2ncc(F)c(Nc3ccc(F)c(C(F)(F)F)c3)n2)c1 [Compound R926838], which IC50 is on record?
A: 10.7 µM

Q: With CNC(=O)COc1cccc(Nc2ncc(F)c(Nc3ccc(C)c(Cl)c3)n2)c1 [Compound R926839] as the molecule, how does the IC50 read?
A: 2.48 µM

Q: CNC(=O)COc1cccc(Nc2ncc(F)c(Nc3cc(C)ccc3Cl)n2)c1 [Compound R926840] was tested. Which IC50 did it give?
A: 12.2 µM

Q: How did the IC50 turn out when Oc1cccc(Nc2nc(Nc3cc(Br)cc(C(F)(F)F)c3)ncc2F)c1 [Compound R926846] was run?
A: > 10 µM

Q: How did the IC50 turn out when NC(=O)Cn1c(=O)oc2ccc(Nc3ncc(F)c(Nc4ccc5c(c4)OCCO5)n3)cc21 [Compound R926847] was run?
A: 11.8 µM

Q: How did the IC50 turn out when O=C(COc1cccc(Nc2ncc(F)c(Nc3ccc4c(c3)OCCO4)n2)c1)NC1CC1 [Compound R926848] was run?
A: 1.72 µM

Q: For CNC(=O)COc1cccc(Nc2ncc(F)c(Nc3ccc(C#N)c(C)c3)n2)c1 [Compound R926851], which IC50 is on record?
A: 3.09 µM

Q: With CNC(=O)COc1cccc(Nc2ncc(F)c(Nc3cccc(-c4nn[nH]n4)c3)n2)c1 [Compound R926855] as the molecule, how does the IC50 read?
A: > 10 µM

Q: With CNC(=O)COc1cccc(Nc2ncc(F)c(Nc3cc(OC)c(Cl)cc3OC)n2)c1 [Compound R926859] as the molecule, how does the IC50 read?
A: > 10 µM

Q: For COc1cc(Nc2nc(Nc3cccc(O)c3)ncc2F)c(OC)cc1Cl [Compound R926860], which IC50 is on record?
A: > 10 µM

Q: How did the IC50 turn out when CNC(=O)COc1cccc(Nc2ncc(F)c(Nc3cc(C(=O)OC)cc(C(F)(F)F)c3)n2)c1 [Compound R926862] was run?
A: 7.75 µM

Q: How did the IC50 turn out when CNC(=O)COc1cccc(Nc2ncc(F)c(Nc3ccc(OC(F)(F)F)cc3)n2)c1 [Compound R926879] was run?
A: 2.55 µM

Q: Which IC50 does the source give for CNC(=O)COc1cccc(Nc2ncc(F)c(Nc3ccc(C(F)(F)F)cc3)n2)c1 [Compound R926880] here?
A: 6.24 µM

Q: With CNC(=O)COc1cccc(Nc2ncc(F)c(Nc3ccc(Cl)c(C(F)(F)F)c3)n2)c1 [Compound R926881] as the molecule, how does the IC50 read?
A: 11 µM

Q: CNC(=O)COc1cccc(Nc2ncc(F)c(Nc3ccc4ncccc4c3)n2)c1 [Compound R926883] was tested. Which IC50 did it give?
A: > 10 µM

Q: Which IC50 does the source give for CNC(=O)COc1cccc(Nc2ncc(F)c(Nc3ccc(OC)nc3)n2)c1 [Compound R926886] here?
A: 1.14 µM

Q: CNC(=O)COc1cccc(Nc2ncc(F)c(Nc3ccc(OC)c(F)c3)n2)c1 [Compound R926892] was tested. Which IC50 did it give?
A: 1.64 µM

Q: How did the IC50 turn out when CNC(=O)COc1cccc(Nc2ncc(F)c(Nc3ccc(Cl)c(-c4nc5ccccc5s4)c3)n2)c1 [Compound R926900] was run?
A: > 10 µM

Q: How did the IC50 turn out when CNC(=O)COc1cccc(Nc2ncc(F)c(Nc3ccc(C)c(OC)c3)n2)c1 [Compound R926902] was run?
A: > 10 µM

Q: Which IC50 does the source give for COC(=O)c1cc2ccc(Nc3ncc(F)c(Nc4cccc(O)c4)n3)cc2[nH]1 [Compound R926903] here?
A: > 10 µM

Q: For CNC(=O)COc1cccc(Nc2ncc(F)c(Nc3ccc4cc(C(=O)OC)[nH]c4c3)n2)c1 [Compound R926904], which IC50 is on record?
A: 1.36 µM

Q: How did the IC50 turn out when CCOC(=O)C1CCN(Cc2cccc(Nc3nc(Nc4cccc(OCC(=O)NC)c4)ncc3F)c2)CC1 [Compound R926905] was run?
A: 6.49 µM

same assay, conditions: Homo sapiens, Jurkat

Q: With CC(=O)Nc1cccc(OCCCNc2ncc(F)c(Nc3ccc4c(c3)OCCO4)n2)c1 [Compound R926787] as the molecule, how does the IC50 read?
A: > 10 µM

Q: How did the IC50 turn out when Fc1cnc(Nc2ccc(-n3cnc(Cl)c3Cl)cc2)nc1Nc1ccc2c(c1)OCCO2 [Compound R926788] was run?
A: > 10 µM

Q: How did the IC50 turn out when COc1ccc(Nc2ncc(F)c(Nc3ccc4c(c3)OCCO4)n2)c(OC)c1 [Compound R926789] was run?
A: > 10 µM

Q: How did the IC50 turn out when CC(C)c1ccc(Nc2ncc(F)c(Nc3ccc4c(c3)OCCO4)n2)cc1 [Compound R926790] was run?
A: > 10 µM

Q: With Cc1cc(Nc2ncc(F)c(Nc3ccc4c(c3)OCCO4)n2)c(C)cc1O [Compound R926792] as the molecule, how does the IC50 read?
A: 9.97 µM

Q: Which IC50 does the source give for COc1cc(Nc2nc(Nc3cccc(O)c3)ncc2F)cc(OC)c1 [Compound R926802] here?
A: 5.91 µM

Q: CCOC(=O)c1cc2cccc(Nc3ncc(F)c(Nc4cc(OC)cc(OC)c4)n3)c2[nH]1 [Compound R926803] was tested. Which IC50 did it give?
A: > 10 µM

Q: How did the IC50 turn out when Oc1cccc(Nc2nc(Nc3cccc(-c4cnco4)c3)ncc2F)c1 [Compound R926831] was run?
A: 1.27 µM

Q: For Oc1cccc(Nc2nc(Nc3cccc(-c4cc[nH]n4)c3)ncc2F)c1 [Compound R926841], which IC50 is on record?
A: 3.28 µM

Q: For Oc1cccc(Nc2nc(Nc3cccc(-c4nnn[nH]4)c3)ncc2F)c1 [Compound R926842], which IC50 is on record?
A: > 10 µM

Q: Fc1cnc(Nc2cccc(-c3nnn[nH]3)c2)nc1Nc1ccc2c(c1)OCCO2 [Compound R926843] was tested. Which IC50 did it give?
A: > 10 µM

Q: With COc1ccc(Nc2ncc(F)c(Nc3ccc4c(c3)OCCO4)n2)c(C)c1 [Compound R926845] as the molecule, how does the IC50 read?
A: > 10 µM

Q: Which IC50 does the source give for COc1cc(Nc2ncc(F)c(Nc3cccc(O)c3)n2)c(OC)cc1Cl [Compound R926857] here?
A: > 10 µM

Q: With COc1cc(Nc2nc(Cl)ncc2F)c(OC)cc1Cl [Compound R926858] as the molecule, how does the IC50 read?
A: > 10 µM

Q: Which IC50 does the source give for COC(=O)c1cc(Nc2ncc(F)c(Nc3cccc(O)c3)n2)cc(C(F)(F)F)c1 [Compound R926863] here?
A: > 10 µM

Q: With Oc1cccc(Nc2ncc(F)c(Nc3cccc(C4=NN(c5ccccc5)CO4)c3)n2)c1 [Compound R926866] as the molecule, how does the IC50 read?
A: > 10 µM

Q: Fc1cnc(Cl)nc1Nc1cccc(-c2nnc(-c3ccccc3)o2)c1 [Compound R926869] was tested. Which IC50 did it give?
A: > 10 µM

Q: Oc1cccc(Nc2ncc(F)c(Nc3cccc(OC(F)(F)F)c3)n2)c1 [Compound R926885] was tested. Which IC50 did it give?
A: > 10 µM

Q: For COc1ccc(Nc2nc(Nc3cccc(O)c3)ncc2F)c(OC)n1 [Compound R926887], which IC50 is on record?
A: 5.92 µM

Q: With Oc1cccc(Nc2nc(Nc3cc(Cl)c(O)c(Cl)c3)ncc2F)c1 [Compound R926890] as the molecule, how does the IC50 read?
A: 11.3 µM

Q: With Cc1cc(O)cc(N(c2ccc3c(c2)OCCO3)c2nc(N)ncc2F)c1 [Compound R926893] as the molecule, how does the IC50 read?
A: > 10 µM

Q: Which IC50 does the source give for Fc1cc(Nc2ncc(F)c(Nc3ccc4c(c3)OCCO4)n2)cc(C(F)(F)F)c1 [Compound R926894] here?
A: > 10 µM

Q: With Cc1cc(Nc2ncc(F)c(Nc3ccc4c(c3)OCCO4)n2)cc(C(F)(F)F)c1 [Compound R926895] as the molecule, how does the IC50 read?
A: > 10 µM

Q: COc1ccc(C)c(Nc2ncc(F)c(Nc3ccc4c(c3)OCCO4)n2)c1 [Compound R926896] was tested. Which IC50 did it give?
A: > 10 µM

Q: For Cc1ccc(F)c(Nc2ncc(F)c(Nc3ccc4c(c3)OCCO4)n2)c1 [Compound R926897], which IC50 is on record?
A: > 10 µM

Q: With Fc1cc(F)cc(Nc2ncc(F)c(Nc3ccc4c(c3)OCCO4)n2)c1 [Compound R926898] as the molecule, how does the IC50 read?
A: > 10 µM

Q: With Fc1cnc(Nc2ccc(SC(F)(F)F)cc2)nc1Nc1ccc2c(c1)OCCO2 [Compound R926899] as the molecule, how does the IC50 read?
A: > 10 µM
